Results published in patent US8044236B2, “Carboxilic acid derivatives” (Institute of Medicinal Molecular Design, Inc., priority 2006, dated 2011).

Molecular target: recombinant human PAI-1 (Homo sapiens, UniProt P05121)
Experiment: Test Example 1: human PAI-1 inhibitory activity (tPA fluorogenic substrate, pH7.5 Tris buffer)
Type: biochemical
Design: purchased Molecular Innovations, Inc
Details: for Inhibition Rate of Human PAI-1 Activity (%): Tris buffer pH7.5
[1] = pH 7.5, read-out: Inhibition Rate of Human PAI-1 Activity (%)

Chain of recombinant human PAI-1 (P05121 24-402): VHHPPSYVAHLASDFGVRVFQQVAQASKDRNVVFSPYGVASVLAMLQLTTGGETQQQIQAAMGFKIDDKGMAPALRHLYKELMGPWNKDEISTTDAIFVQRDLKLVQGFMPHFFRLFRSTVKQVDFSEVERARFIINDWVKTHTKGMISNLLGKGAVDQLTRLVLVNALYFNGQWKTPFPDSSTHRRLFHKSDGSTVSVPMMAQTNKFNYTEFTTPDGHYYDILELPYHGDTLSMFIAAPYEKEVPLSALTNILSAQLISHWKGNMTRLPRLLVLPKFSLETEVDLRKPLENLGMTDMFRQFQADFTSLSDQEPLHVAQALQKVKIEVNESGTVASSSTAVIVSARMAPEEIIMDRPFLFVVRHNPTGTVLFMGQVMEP
Experimental: In a 96-well multiplate (black), 1.5 μl of DMSO solution of the present application compound prepared to achieve 80-fold the test concentration (=the final concentration when fluorogenic substrate is added) was diluted with 52.5 μl of pH7.5 Tris buffer. […] Furthermore, 30 μl of 800 IU/ml two-chain tPA (Activity Standard; American diagnostics, inc.) prepared by Tris buffer was added, and the mixed solution was incubated for 15 minutes at room temperature. To this, 30 μl of 400 μM fluorogenic substrate (Pyr-Gly-Arg-MCA; Peptide Institute, Inc.) for tPA prepared by Tris buffer was added and reacted for 30 minutes at room temperature.
<Composition of pH7.5 Tris Buffer)

Structure (SMILES) | Inhibition Rate of Human PAI-1 Activity (%) (compound 5 μM) | Inhibition Rate of Human PAI-1 Activity (%) (compound 10 μM) | Inhibition Rate of Human PAI-1 Activity (%) (compound 25 μM) | inhibition at 10 µM [1] | inhibition at 25 µM [1]
COc1ccc(-c2ccc(OCc3ccc(C(C)(C)C)cc3)c(/C=C/C(=O)O)c2)cc1 [Compound 42, (E)-3-{4-[4-(tert-butyl)benzyloxy]-4′-methoxybiphenyl-3-yl}propenoic acid] | 23% | 47% | 84% | – | –
COc1ccc(-c2ccc(OCc3ccc(C(C)(C)C)cc3)c(CCC(=O)O)c2)cc1 [Compound 43, 3-{4-[4-(tert-butyl)benzyloxy]-4′-methoxybiphenyl-3-yl}propanoic acid] | 14% | 34% | 93% | – | –
CC(C)(C)c1ccc(COc2ccc(-c3ccc(C(C)(C)C)cc3)cc2/C=C/C(=O)O)cc1 [Compound 44, (E)-3-{4′-(tert-butyl)-4-[4-(tert-butyl)benzyloxy]biphenyl-3-yl}propenoic acid] | 25% | 56% | 94% | – | –
CC(C)(C)c1ccc(COc2ccc(-c3ccc(C(C)(C)C)cc3)cc2CCC(=O)O)cc1 [Compound 45, 3-{4′-(tert-butyl)-4-[4-(tert-butyl)benzyloxy]biphenyl-3-yl}propanoic acid] | 22% | 66% | >99% | – | –
CCCCc1ccc(-c2ccc(OCc3ccc(C(C)(C)C)cc3)c(CCC(=O)O)c2)cc1 [Compound 48, 3-{4′-butyl-4-[4-(tert-butyl)benzyloxy]biphenyl-3-yl}propanoic acid] | 29% | 66% | 94% | – | –
CSc1ccc(-c2ccc(OCc3ccc(C(C)(C)C)cc3)c(/C=C/C(=O)O)c2)cc1 [Compound 49, (E)-3-{4-[4-(tert-butyl)benzyloxy]-4′-(methylsulfanyl)biphenyl-3-yl}propenoic acid] | 16% | 25% | 21% | – | –
CC(C)(C)c1ccc(-c2ccc(OCc3ccccc3)c(/C=C/C(=O)O)c2)cc1 [Compound 52, (E)-3-[4-benzyloxy-4′-(tert-butyl)biphenyl-3-yl]propenoic acid] | 22% | 47% | 91% | – | –
CC(C)(C)c1ccc(-c2ccc(OCc3ccccc3)c(CCC(=O)O)c2)cc1 [Compound 53, 3-[4-benzyloxy-4′-(tert-butyl)biphenyl-3-yl]propanoic acid] | 20% | 50% | 93% | – | –
CC(C)(C)c1ccc(-c2ccc(OCc3ccc(OC(F)(F)F)cc3)c(/C=C/C(=O)O)c2)cc1 [Compound 56, (E)-3-{4′-(tert-butyl)-4-[4-(trifluoromethoxy)benzyloxy]biphenyl-3-yl}propenoic acid] | 32% | 69% | 94% | – | –
CC(C)(C)c1ccc(-c2ccc(OCc3ccc(OC(F)(F)F)cc3)c(CCC(=O)O)c2)cc1 [Compound 57, 3-{4′-(tert-butyl)-4-[4-(trifluoromethoxy)benzyloxy]biphenyl-3-yl}propanoic acid] | 28% | 64% | 94% | – | –
O=C(O)CCc1cc(-c2ccccc2)ccc1OCc1ccc(OC(F)(F)F)cc1 [Compound 58, 3-{4-[4-(trifluoromethoxy)benzyloxy]biphenyl-3-yl}propanoic acid] | 19% | 32% | 74% | – | –
COc1ccccc1-c1ccc(OCc2ccc(C(C)(C)C)cc2)c(/C=C/C(=O)O)c1 [Compound 61, (E)-3-{4-[4-(tert-butyl)benzyloxy]-2′-methoxybiphenyl-3-yl}propenoic acid] | 21% | 46% | 95% | – | –
COc1ccccc1-c1ccc(OCc2ccc(C(C)(C)C)cc2)c(CCC(=O)O)c1 [Compound 62, 3-{4-[4-(tert-butyl)benzyloxy]-2′-methoxybiphenyl-3-yl}propanoic acid] | 22% | 47% | 91% | – | –
COc1ccc(COc2ccc(-c3ccc(OC(F)(F)F)cc3)cc2CCC(=O)O)cc1 [Compound 66, 3-[4-(4-methoxybenzyloxy)-4′-(trifluoromethoxy)biphenyl-3-yl]propanoic acid] | 15% | 35% | 25% | – | –
CC(C)(C)c1ccc(COc2ccc(-c3ccc(OC(F)(F)F)cc3)cc2CCc2nnn[nH]2)cc1 [Compound 69, 5-{2-{4-[4-(tert-butyl)benzyloxy]-4′-(trifluoromethoxy)biphenyl-3-yl}ethyl}-1H-tetrazole] | – | – | – | 34% | > 99%
CC(C)(C)c1ccc(COc2ccc(-c3cccc(OC(F)(F)F)c3)cc2/C=C/C(=O)O)cc1 [Compound 70, (E)-3-{4-[4-(tert-butyl)benzyloxy]-3′-(trifluoromethoxy)biphenyl-3-yl}propenoic acid] | 38% | 72% | 93% | – | –
CC(C)(C)c1ccc(COc2ccc(-c3cccc(OC(F)(F)F)c3)cc2CCC(=O)O)cc1 [Compound 71, 3-{4-[4-(tert-butyl)benzyloxy]-3′-(trifluoromethoxy)biphenyl-3-yl}propanoic acid] | 49% | 74% | 95% | – | –
CC(C)(C)c1ccc(COc2ccc(-c3ccccc3OC(F)(F)F)cc2/C=C/C(=O)O)cc1 [Compound 72, (E)-3-{4-[4-(tert-butyl)benzyloxy]-2′-(trifluoromethoxy)biphenyl-3-yl}propenoic acid] | 42% | 72% | 93% | – | –
CC(C)(C)c1ccc(COc2ccc(-c3ccccc3OC(F)(F)F)cc2CCC(=O)O)cc1 [Compound 73, 3-{4-[4-(tert-butyl)benzyloxy]-2′-(trifluoromethoxy)biphenyl-3-yl}propanoic acid] | 52% | 80% | >99% | – | –
CC(C)(C)c1ccc(-c2ccc(OCc3ccccc3OC(F)(F)F)c(CCC(=O)O)c2)cc1 [Compound 74, 3-{4′-(tert-butyl)-4-[2-(trifluoromethoxy)benzyloxy]biphenyl-3-yl}propanoic acid] | 37% | 70% | 94% | – | –
CC(C)(C)c1ccc(-c2ccc(OCc3cccc(OC(F)(F)F)c3)c(CCC(=O)O)c2)cc1 [Compound 75, 3-{4′-(tert-butyl)-4-[3-(trifluoromethoxy)benzyloxy]biphenyl-3-yl}propanoic acid] | 40% | 74% | 95% | – | –
CC(C)(C)c1ccc(-c2ccc(OCc3ccc(C(F)(F)F)cc3)c(CCC(=O)O)c2)cc1 [Compound 77, 3-{4′-(tert-butyl)-4-[4-(trifluoromethyl)benzyloxy]biphenyl-3-yl}propanoic acid] | 47% | 71% | 95% | – | –
CCCCc1ccc(COc2ccc(-c3ccc(C(C)(C)C)cc3)cc2CCC(=O)O)cc1 [Compound 78, 3-[4′-(tert-butyl)-4-(4-butylbenzyloxy)biphenyl-3-yl]propanoic acid] | 51% | 80% | 93% | – | –
